The nature of assay [1]: Binding affinity to Pyrococcus horikoshii sodium-coupled aspartate transporter.
Assay [2] has as its target Glutamate transporter homolog (Pyrococcus horikoshii (strain ATCC 700860 / DSM 12428 / JCM 9974 /NBRC 100139 / OT-3), UniProt O59010, D405N). Put plainly: Binding affinity to Pyrococcus horikoshii sodium-coupled aspartate transporter D405N mutant in presence of NaCl.
The subject of the next assay is Pyrococcus horikoshii. Nature of the assay: Inhibition of [3H]L-aspartate uptake at Pyrococcus horikoshii sodium-coupled aspartate transporter in presence of thallium.
Assay [3] in a line: Binding affinity to Pyrococcus horikoshii sodium-coupled aspartate transporter by isothermal titration calorimetry in presence of NaCl.

Activity calls are given as the source filed them. The rule behind the calls is not given here.

Glutamate transporter homolog, sequence (O59010 whole entry D405N): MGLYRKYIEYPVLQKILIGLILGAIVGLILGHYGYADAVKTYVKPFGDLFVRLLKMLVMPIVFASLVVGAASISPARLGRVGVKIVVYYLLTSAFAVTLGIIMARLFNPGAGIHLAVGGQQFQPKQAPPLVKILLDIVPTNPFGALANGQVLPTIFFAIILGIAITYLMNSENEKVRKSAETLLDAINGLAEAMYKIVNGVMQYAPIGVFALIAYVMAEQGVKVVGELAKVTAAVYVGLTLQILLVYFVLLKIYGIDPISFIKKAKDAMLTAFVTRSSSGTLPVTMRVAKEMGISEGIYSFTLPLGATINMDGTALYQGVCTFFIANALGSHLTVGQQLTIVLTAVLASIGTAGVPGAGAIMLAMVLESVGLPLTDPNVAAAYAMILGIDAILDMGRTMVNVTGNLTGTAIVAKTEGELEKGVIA

As to `N[C@@H](CS(=O)O)C(=O)O`, the Kd (usually a measure of binding affinity in units of concentration) in assay [1] was 0.02 µM.

For the compound `NC(C(=O)O)C(OCc1ccccc1)C(=O)O` (racemic), the Kd in assay [2] stood at 100 nM. `N[C@@H](CC(=O)O)C(=O)O` [ASPARTIC ACID]: in the assay on Pyrococcus horikoshii, the outcome was inactive. Also, the Kd in assay [3] came to 94 nM. As to `N[C@H](CC(=O)O)C(=O)O` [D-ASPARTATE], the Kd in assay [1] came to 0.009 µM. In the case of `N[C@H](CCC(=O)O)C(=O)O` [D-GLUTAMATE], the affinity in assay [1], expressed as Kd, was 162 µM. Still for that read-out and setting: the result for `N[C@@H](CCC(=O)O)C(=O)O` [GLUTAMIC ACID] reads 122 µM.

Regarding `N[C@@H](CO)C(=O)O` [SERINE], the equilibrium dissociation constant (Kd) in assay [1] was found to be 160 µM. For the compound `O=C(O)CCC(=O)O` [SUCCINIC ACID], in assay [1], the Kd was determined as 1450 µM.

(Values after ChEMBL document CHEMBL1147051, “Coupling substrate and ion binding to extracellular gate of a sodium-dependent aspartate transporter” (Nature, 2007).)
